Test results as given in US20260226417A1, “METHOD FOR INHIBITING AGING OF STEM CELLS” (ENCELL CO., LTD, priority 2023, published 2026).

Assays:
[1] = system: control cells (P5), human umbilical cord-derived mesenchymal stem cells; assay: Cytotoxicity by CCK-8 assay, control cells (P5); format: cell-based; conditions: 160 μM
[2] = system: replicative senescence-induced human umbilical cord-derived mesenchymal stem cells (P18); assay: Cell proliferation by CCK-8 assay, 6 days, replicative senescence model (P18); format: cell-based; conditions: 160 μM
Experimental: Example 4. Validation of gut microbiota-derived metabolite candidate for senescence control Control cells (P5) and replicative senescence-induced human umbilical cord-derived mesenchymal stem cells (P18) were treated with nervonic acid (160 μM) to analyze the effects of the gut microbiota-derived metabolite having the ability to control senescence of stem cells on the proliferation of stem cells and cell size.
Specifically, control cells (p5) and replicative senescence-induced human umbilical cord-derived mesenchymal stem cells (P18) were exposed to nervonic acid (160 μM) in culture medium, followed by culture for 6 days while replacing the medium every 3 days, and cell proliferation was assessed using CCK-8 assay.

[3] = system: senescence markers P16 and P21; assay: Western blotting of P16 and P21 in replicative senescence model (P18); format: cell-based, human; conditions: 160 μM
Experimental: In order to verify the anti-senescence efficacy of nervonic acid, the expression levels of senescence-related markers in a control group (P5) and a replicative senescence model (P18) were measured after treatment with nervonic acid (160 μM).
Specifically, Western blotting performed in this example is as follows: cells were collected, and the cell membrane was broken using RIPA buffer, followed by centrifugation to collect the supernatant. Intracellular proteins were quantified using the Bradford assay (Bio-Rad, USA), and 20 μg of protein for each sample was loaded onto the gel, followed by electrophoresis using SDS. After transferring the protein to a polyvinylidene fluoride (PVDF) membrane, 1× TBST (Tris-buffered saline with 0.1% Tween 20) solution containing 5% skim milk (BD Difco, USA) was added and incubated at room temperature for 1 hour. Thereafter, P16 (1: 1000, Cell Signaling, USA), P21 (1: 1000, Cell Signaling, USA), and β-actin (1:5000; Santa Cruz, USA) antibodies were added and incubated overnight at 4° C. Then, the secondary antibody (anti-rabbit IgG-HRP; ABClon, Korea) was added and incubated at room temperature for one hour. Afterwards, the blots were visualized using ECL (Bio-Rad, USA) and assessed.

[4] = system: SASP markers IL-6, MMP3, IGFBP3, IGFBP5, IGFBP7; assay: qRT-PCR of SASP markers at P10 after treatment at each passage; format: cell-based, human; conditions: 160 μM for 24 hours at each passage
Experimental: Specifically, qRT-PCR performed in this example is as follows: after treating the replicative senescence model (P18) with nervonic acid for 3 days, total RNA was extracted using Trizol (Invitrogen, MA, USA) according to the method provided by the vendor. After quantifying the extracted total RNA, random hexamer and dNTP were added, and PCR was performed at 65° C. for 5 minutes. 5× SSIV buffer, 100 mM DTT, RNAse OUT, and Superscript IV RT were added and reverse transcription was performed to synthesize cDNA, and then qRT-PCR was performed to measure gene expression, and the expression levels were compared through 2^−ΔΔCt analysis.
Example 8. Confirmation Of anti-senescence efficacy by treating various human tissue-derived mesenchymal stem cells with nervonic acid Human-derived mesenchymal stem cells were treated with nervonic acid (160 μM) at each passage during cell culture from control cells (P5) to P10 to determine whether continuous treatment with nervonic acid during cell culture at early passage numbers was able to delay cellular senescence.
Specifically, from the day after human-derived mesenchymal stem cells were subcultured, treatment with 160 μM nervonic acid or an equivalent amount of DMSO (control) for 24 hours was performed, followed by replacement with the existing culture medium the next day. The above process was repeated to perform subculture up to P10 (passage 10). As such, B galactosidase staining for measuring cellular senescence was performed at P7, P8, P9, and P10, and cell doubling time and RNA extraction for qRT-PCR were both performed at P10. A more specific procedure therefor was carried out in the same manner as described above.

[5] = system: Annexin V, an apoptosis marker, in muscle tissue; assay: Annexin V Western blotting in muscle tissue of muscle disease mouse model after injection of treated P18 cells; format: in vivo; conditions: P18 cells treated with 160 μM for 72 hours, 5×10^4 cells per mouse via tail vein, one week after injection
Experimental: (§1) A replicative senescence model (P18) was treated with nervonic acid (160 μM) and then injected into a muscle disease mouse model to assess the effect of nervonic acid treatment on the therapeutic efficacy of the replicative senescence model (P18) in terms of reducing apoptosis in muscle tissue.
(§2) Specifically, the muscle disease mouse model used was C57BL/10ScSn-Dmdmdx/J (mdx mouse) , and C57BL/10J with the same genetic background was used as a control group. All experiments were conducted using mice aged 4 to 5 months. The cells to be injected were human umbilical cord-derived young mesenchymal stem cells (control group) (P5) and replicative senescence model (P18). More specifically, the replicative senescence model (P18) was treated with 160 μM nervonic acid or an equivalent amount of DMSO for 72 hours during culture at P18 and then dissociated as single cells with 0.25% Trypsin/EDTA (Gibco, MT, USA), and 5×10^4 cells per mouse were injected via the tail vein. One week after injection, both tibial muscles of the mouse model were harvested and fixed in 4% paraformaldehyde or frozen.
In addition, the expression of Annexin V was assessed at the protein level. Specifically, the protein to be used in the experiment was extracted from muscle tissue. […]

[6] = system: MyHC (myosin heavy chain), a marker of muscle regeneration, in muscle tissue; assay: MyHC Western blotting in muscle tissue of muscle disease mouse model after injection of treated P18 cells; format: in vivo; conditions: P18 cells treated with 160 μM for 72 hours, injected via tail vein, mdx mouse, one week after injection
Experimental: as §2
as §1, with “Example 10. Comparative analysis of muscle regeneration promotion efficacy after injection of various human tissue-derived mesenchymal stem cells treated with nervonic acid into muscle disease mouse model A” for “A”, “muscle regeneration” for “reducing apoptosis”
In addition, the expression of MyHC was assessed at the protein level. […]

SMILES: CCCCCCCC/C=C\CCCCCCCCCCCCCC(=O)O [nervonic acid]
- change in cell viability [1]: no change in cell viability
- cell proliferation [2]: proliferation was significantly reduced
- P16 protein expression level, fold compared to before treatment [3]: 0.65±0.07 fold
- P21 protein expression level, fold compared to before treatment ([3]; not significant): 0.82±0.07 fold
- IGFBP3 mRNA expression, fold compared to control group (DMSO) [4]: 0.77±0.03 fold
- IGFBP5 mRNA expression, fold compared to control group (DMSO) [4]: 0.80±0.03 fold
- IGFBP7 mRNA expression, fold compared to control group (DMSO) [4]: 0.91±0.03 fold
- IL-6 mRNA expression, fold compared to control group (DMSO) [4]: 0.77±0.03 fold
- MMP3 mRNA expression, fold compared to control group (DMSO) [4]: 0.65±0.07 fold
- Annexin V protein expression (Western blotting), fold decrease compared to mdx control group [5]: 0.30±0.02 fold
- MyHC protein expression level (Western blotting) compared to DMSO treatment group [6]: significantly increased
